From patent US20220041623A1, “INDOLE MACROCYCLIC DERIVATIVE, PREPARATION METHOD THEREOF AND APPLICATION THEREOF IN MEDICINE” (JIANGSU HENGRUI MEDICINE CO., LTD., priority 2018, published 2022)

Target: T1, MCL-1 protein (Homo sapiens, UniProt Q07820)
T1 construct: Bim peptide bought from R&D, 3526/1 NA
Assay: MCL-1 protein binding experiment (HTRF, MCL-1/Bim)
Settings: for Maximum inhibition rate (%) / inhibition at up to 10 µM: HTRF MCL-1/Bim binding, initial concentration 10 μM; for Ki: HTRF, 0.1 nM His-MCL-1, 2.5 nM bio-Bim, room temperature; for inhibition at up to 10 µM: read-out: Maximum inhibition rate (%)
Protocol: The following method was used to determine the binding ability of the compound of the present invention to MCL-1 protein. The experimental method is briefly described as follows.
MCL-1 inhibitors can bind to MCL-1 protein to prevent the binding of MCL-1 to Bim protein. The experiment evaluates the binding ability of MCL-1 inhibitor to MCL-1 protein by detecting the binding of MCL-1 to Bim protein through HTRF method, and the activity of the compound was evaluated according to the Ki value.
The mixture was incubated at room temperature for 2 hours, followed by the detection of fluorescence signals at 620 nm and 665 nm by PHERAstar. The data was processed by GraphPad software.

T1 sequence (Q07820 171-327): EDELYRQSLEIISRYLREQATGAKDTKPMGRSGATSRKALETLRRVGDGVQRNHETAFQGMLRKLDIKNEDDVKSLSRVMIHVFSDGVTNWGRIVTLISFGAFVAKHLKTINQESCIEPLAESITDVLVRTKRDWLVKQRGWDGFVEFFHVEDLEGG

| Maximum inhibition rate (%) (10 µM) | Ki | inhibition at up to 10 µM | Maximum inhibition rate (%) | SMILES |
| --- | --- | --- | --- | --- |
| 98% | 57 nM | – | – | Cc1c(C(=O)O)n2c3ccc(Cl)c(c13)-c1c(nn(C)c1C)CSCc1cc(n(C)n1)CCc1cc3c(c(c1)OCCC2)CCCC3 (single isomer, unassigned) [Example 8-2, (Sa)-17-Chloro-5,13,14,22-tetramethyl-28-oxa-9-thia-5,6,12,13,24-pentaazaheptacyclo[27.7.1.1^4,7.0^11,15.0^16,21.0^20,24.0^30,35]octatriaconta-1(37),4(38),6,11,14,16,18,20,22,29,35-undecaene-23-carboxylic acid] |
| – | 0.32 nM | 100% | – | CCc1c(C(=O)O)n2c3ccc(Cl)c(c13)-c1c(nn(C)c1C)CSCc1cc(n(C)n1)CSc1cc(c3ccccc3c1)OCCC2 (single isomer, unassigned) [Example 14-1, (Ra)-17-Chloro-22-ethyl-5,13-14-trimethyl-28-oxa-2,9-dithia-5,6,12,13,24-pentaazaheptacyclo[27.7.1.1^4,7.0^11,15.0^16,21.0^20,24.0^30,35]octatriaconta-1(37),4(38),6,11,14,16,18,20,22,29,31,33,35-tridecaene-23-carboxylic acid] |
| 99% | 4.4 nM | – | – | Cc1c(C(=O)O)n2c3ccc(Cl)c(c13)-c1c(nn(C)c1C)CSCc1cc(n(C)n1)CSc1cc3c(c(c1)OCCC2)CCC3 (single isomer, unassigned) [Example 13-2, (Sa)-17-Chloro-5,13,14,22-tetramethyl-28-oxa-2,9-dithia-5,6,12,13,24-pentaazaheptacyclo[27.6.1.1^4,7.0^11,15.0^16,21.0^20,24.0^30,34]heptatriaconta-1(36),4(37),6,11,14,16,18,20,22,29,34-undecaene-23-carboxylic acid] |
| – | 7.9 nM | 101% | – | Cc1c(C(=O)O)n2c3ccc(Cl)c(c13)-c1c(nn3c1CCCC3)CSCc1cc(n(C)n1)CSc1cc(c3ccccc3c1)OCCC2 [Example 10, 21-Chloro-5,26-dimethyl-32-oxa-2,9-dithia-5,6,12,13,28-pentaazaoctacyclo[31.7.1.1^4,7.0^11,19.0^13,18.0^20,25.0^24,28.0^34,39]dotetraconta-1(41),4(42),6,11,18,20,22,24,26,33,35,37,39-tridecaene-27-carboxylic acid] |
| – | 3 nM | 100% | – | Cc1c(C(=O)O)n2c3ccc(Cl)c(c13)-c1c(nn3c1CCCC3)CN(C)Cc1cc(n(C)n1)CSc1cc(c3ccccc3c1)OCCC2 [Example 11, 21-Chloro-5,9,26-trimethyl-32-oxa-2-thia-5,6,9,12,13,28-hexaazaoctacyclo[31.7.1.1^4,7.0^11,19.0^13,18.0^20,25.0^24,28.0^34,39]dotetraconta-1(41),4(42),6,11,18,20,22,24,26,33,35,37,39-tridecaene-27-carboxylic acid] |
| – | 0.55 nM | 100% | – | Cc1c(C(=O)O)n2c3ccc(Cl)c(c13)-c1c(nn(C)c1C)CSCc1cc(n(C)n1)CCc1cc3c(c(c1)OCCC2)CCCC3 [Example 8, 17-Chloro-5,13,14,22-tetramethyl-28-oxa-9-thia-5,6,12,13,24-pentaazaheptacyclo[27.7.1.1^4,7.0^11,15.0^16,21.0^20,24.0^30,35]octatriaconta-1(37),4(38),6,11,14,16,18,20,22,29,35-undecaene-23-carboxylic acid] |
| – | 5.7 nM | – | 100% | Cc1c(C(=O)O)n2c3ccc(Cl)c(c13)-c1c(nn(C)c1C)CSCc1cc(n(C)n1)CSc1cc(cc3c1CCC3)OCCC2 (single isomer, unassigned) [Example 12-2, (Sa)-17-Chloro-5,13,14,22-tetramethyl-28-oxa-2,9-dithia-5,6,12,13,24-pentaazaheptacyclo[27.6.1.1^4,7.0^11,15.0^16,21.0^20,24.0^30,35]heptatriaconta-1(36),4(37),6,11,14,16,18,20,22,29,31(35)-undecaene-23-carboxylic acid] |

Further lines, the compound ahead of its results:

| SMILES | Maximum inhibition rate (%) (10 µM) | Ki | inhibition at up to 10 µM | Maximum inhibition rate (%) |
| --- | --- | --- | --- | --- |
| Cc1cc2cc(c1)SCc1cc(nn1C)CSCc1nn(C)c(C)c1-c1c(Cl)ccc3c1c(C)c(C(=O)O)n3CCCO2 [Example 6, 17-Chloro-5,13,14,22,31-pentamethyl-28-oxa-2,9-dithia-5,6,12,13,24-pentaazahexacyclo[27.3.1.1^4,7.0^11,15.0^16,21.0^20,24]tetratriaconta-1(33),4(34),6,11,14,16,18,20,22,29,31-undecaene-23-carboxylic acid] | – | 1.9 nM | 98% | – |
| Cc1c(C(=O)O)n2c3ccc(Cl)c(c13)-c1c(nn(C)c1C)CSCc1cc(n(C)n1)CSc1cc(c3ccccc3c1)OCCC2 [Example 2, 17-Chloro-5,13,14,22-tetramethyl-28-oxa-2,9-dithia-5,6,12,13,24-pentaazaheptacyclo[27.7.1.1^4,7.0^11,15.0^16,21.0^20,24.0^30,35]octatriaconta-1(37),4(38),6,11,14,16,18,20,22,29,31,33,35-tridecaene-23-carboxylic acid] | – | 0.18 nM | 99% | – |
| Cc1c(C(=O)O)n2c3ccc(Cl)c(c13)-c1c(nn(C)c1C)CSCc1cc(n(C)n1)CSc1cc3c(c(c1)OCCC2)CCCC3 [Example 7, 17-Chloro-5,13,14,22-tetramethyl-28-oxa-2,9-dithia-5,6,12,13,24-pentaazaheptacyclo[27.7.1.1^4,7.0^11,15.0^16,21.0^20,24.0^30,35]octatriaconta-1(37),4(38),6,11,14,16,18,20,22,29,35-undecaene-23-carboxylic acid] | – | 0.71 nM | 99% | – |
| Cc1c(C(=O)O)n2c3ccc(Cl)c(c13)-c1c(nn(C)c1C)CN(C)Cc1cc(n(C)n1)CSc1cc(c3ccccc3c1)OCCC2 [Example 3, 17-Chloro-5,9,13,14,22-pentamethyl-28-oxa-2-thia-5,6,9,12,13,24-hexaazaheptacyclo[27.7.1.1^4,7.0^11,15.0^16,21.0^20,24.0^30,35]octatriaconta-1(37),4(38),6,11,14,16,18,20,22,29,31,33,35-tridecaene-23-carboxylic acid] | – | 0.6 nM | 100% | – |
| Cc1c(C(=O)O)n2c3ccc(Cl)c(c13)-c1c(nn(C)c1C)CSCc1cc(n(C)n1)CSc1cc3c(c(c1)OCCC2)CCCC3 (single isomer, unassigned) [Example 7-2, (Sa)-17-Chloro-5,13,14,22-tetramethyl-28-oxa-2,9-dithia-5,6,12,13,24-pentaazaheptacyclo[27.7.1.1^4,7.0^11,15.0^16,21.0^20,24.0^30,35]octatriaconta-1(37),4(38),6,11,14,16,18,20,22,29,35-undecaene-23-carboxylic acid] | 100% | 15 nM | – | – |
| Cc1c(C(=O)O)n2c3ccc(Cl)c(c13)-c1c(nn(C)c1C)CN(C)Cc1cc(n(C)n1)CSc1cc(c3ccccc3c1)OCCC2 (single isomer, unassigned) [Example 3-2, (Sa)-17-Chloro-5,9,13,14,22-pentamethyl-28-oxa-2-thia-5,6,9,12,13,24-hexaazaheptacyclo[27.7.1.1^4,7.0^11,15.0^16,21.0^20,24.0^30,35]octatriaconta-1(37),4(38),6,11,14,16,18,20,22,29,31,33,35-tridecaene-23-carboxylic acid] | 99% | 14 nM | – | – |
| Cc1c(C(=O)O)n2c3ccc(Cl)c(c13)-c1c(nn(C)c1C)CSCc1cc(n(C)n1)CSc1cc(c3ccccc3c1)OCCC2 (single isomer, unassigned) [Example 2-2, (Sa)-17-Chloro-5,13,14,22-tetramethyl-28-oxa-2,9-dithia-5,6,12,13,24-pentaazaheptacyclo[27.7.1.1^4,7.0^11,15.0^16,21.0^20,24.0^30,35]octatriaconta-1(37),4(38),6,11,14,16,18,20,22,29,31,33,35-tridecaene-23-carboxylic acid] | 95% | 65 nM | – | – |
| Cc1cc2cc(c1)SCc1cc(nn1C)CN(C)Cc1nn(C)c(C)c1-c1c(Cl)ccc3c1c(C)c(C(=O)O)n3CCCO2 [Example 5, 17-Chloro-5,9,13,14,22,31-hexamethyl-28-oxa-2-thia-5,6,9,12,13,24-hexaazahexacyclo[27.3.1.1^4,7.0^11,15.0^16,21.0^20.24]tetratriaconta-1(33),4(34),6,11,14,16,18,20,22,29,31-undecaene-23-carboxylic acid] | – | 4.8 nM | 99% | – |
| Cc1c(C(=O)O)n2c3ccc(Cl)c(c13)-c1c(nn(C)c1C)CN(C)Cc1cc(n(C)n1)CSc1cc(c3ccccc3c1)OCCC2 (single isomer, unassigned) [Example 3-1, (Ra)-17-Chloro-5,9,13,14,22-pentamethyl-28-oxa-2-thia-5,6,9,12,13,24-hexaazaheptacyclo[27.7.1.1^4,7.0^11,15.0^16,21.0^20,24.0^30,35]octatriaconta-1(37),4(38),6,11,14,16,18,20,22,29,31,33,35-tridecaene-23-carboxylic acid] | – | 0.18 nM | 100% | – |
| Cc1c(C(=O)O)n2c3ccc(Cl)c(c13)-c1c(nn(C)c1C)CSCc1cc(n(C)n1)CCc1cc(c3ccccc3c1)OCCC2 [Example 4, 17-Chloro-5,13,14,22-tetramethyl-28-oxa-9-thia-5,6,12,13,24-pentaazaheptacyclo[27.7.1.1^4,7.0^11,15.0^16,21.0^20,24.0^30,35]octatriaconta-1(37),4(38),6,11,14,16,18,20,22,29,31,33,35-tridecaene-23-carboxylic acid] | – | 1.35 nM | 99% | – |
